By Km is commonly meant the substrate concentration at which the rate is half of its maximum. Usually Vmax stands for the top rate of the reaction or transport when substrate is in excess.

The values below come from US12607406B2, “Recombinant virus, composition comprising the same, and uses thereof” (ACADEMIA SINICA, priority 2016, dated 2026).

Holding throughout (type): biochemical
Test [1] relates to Influenza A virus A/WSN/33 (H1N1) neuraminidase (NA) on virus, variant 44-72-219-G, substitutions at positions 44, 72, and 219, SEQ ID NO: 11.
Test [2] has as its system Influenza A virus A/WSN/33 (H1N1) neuraminidase (NA) variant 72-G, substitution at position 72, SEQ ID NO: 9.
In test [3] the test system is Influenza A virus A/WSN/33 (H1N1) neuraminidase (NA) on virus, variant 44-G, substitution at position 44, SEQ ID NO: 8.
Test [4] deals with Influenza A virus A/WSN/33 (H1N1) neuraminidase (NA) variant 44-72-219-G, substitutions at positions 44, 72, and 219, SEQ ID NO: 11.
The test system of test [5] is Influenza A virus A/WSN/33 (H1N1) neuraminidase (NA) variant 44-G, substitution at position 44, SEQ ID NO: 8.
Test [6] has as its system Influenza A virus A/WSN/33 (H1N1) neuraminidase (NA) on virus, variant 44-72-G, substitutions at positions 44 and 72, SEQ ID NO: 10.
The subject of test [7] is Influenza A virus A/WSN/33 (H1N1) neuraminidase (NA) variant 44-72-G, substitutions at positions 44 and 72, SEQ ID NO: 10.
In test [8] the test system is Influenza A virus A/WSN/33 (H1N1) neuraminidase (NA) on virus, variant 72-G, substitution at position 72, SEQ ID NO: 9.
The subject of test [9] is Influenza A virus A/WSN/33 (H1N1) neuraminidase (NA), all mutants (44-G, 72-G, 44-72-G, 44-72-219-G).

With `CC(=O)N[C@H]1[C@H]([C@H](O)[C@H](O)CO)O[C@@](O[C@H]2[C@@H](O)[C@@H](CO)O[C@@H](O[C@H]3[C@H](O)[C@@H](NC(C)=O)C(O)O[C@@H]3CO)[C@@H]2O)(C(=O)O)C[C@@H]1O` (stereo partly shown) [3SLN, 3′-sialyl-N-acetyllactosamine], the Km was found to be 281 µM in test [1]; 289 µM in test [2]; 274 µM in test [3]; 299 µM in [4]; 295 µM in test [5]; 285 µM in test [6]. Moreover, the values for the Michaelis-Menten constant (Km) in test [7] and in [8] were 296 µM and 268 µM, respectively. The Kcat was 364.4 s⁻¹ in test [2], 139.1 s⁻¹ in test [4], 389.8 s⁻¹ in [5] and 136.4 s⁻¹ in test [7]. Also, the Km value increased entry in test [2] and in test [5] was “more than two-fold” in each case. The maximum rate (Vmax) in test [2] was 3.89 nM/s; in [4] it was 1.48 nM/s; in test [5], 4.09 nM/s; in test [7] it was 1.46 nM/s.

As for `CC(=O)N[C@H]1[C@H]([C@H](O)[C@H](O)CO)O[C@@](Oc2ccc3c(C)cc(=O)oc3c2)(C(=O)O)C[C@@H]1O` [4-Muα-Neu5Ac, 2-(4-methylumbelliferyl)-α-D-N-acetylneuraminic acid], the Km in [1] is 415 µM; in test [2], 591 µM; in test [3], 508 µM; in [4], 597 µM; in test [5] it was 595 µM; in [6], 429 µM. Further, the Km in test [7] amounted to 588 µM; in test [8] it was 485 µM. The Kcat worked out at 426.8 s⁻¹ in [2], 105.8 s⁻¹ in test [4], 468.5 s⁻¹ in test [5] and 100.3 s⁻¹ in [7]. Also, the Vmax in [2] turned out to be 4.45 nM/s; in test [4] it was 1.2 nM/s; in [5], 4.95 nM/s; in [7] it was 1.15 nM/s. Moreover, the “Km values of all mutants” value in [9] is “similar”.

Consider `CC(=O)N[C@H]1[C@H]([C@H](O)[C@H](O)CO)O[C@@](OC[C@H]2O[C@@H](O[C@H]3[C@H](O)[C@@H](NC(C)=O)C(O)O[C@@H]3CO)[C@H](O)[C@@H](O)[C@H]2O)(C(=O)O)C[C@@H]1O` (stereo partly shown) [6SLN, 6′-sialyl-N-acetyllactosamine], for which the Km in test [1] amounted to 515 µM; in [2], 688 µM; in test [3], 525 µM; in test [4], 675 µM; in test [5], 684 µM; in [6] it was 521 µM. Further, the Km in test [7] was found to be 679 µM; in test [8], 540 µM. The Kcat amounted to 83.6 s⁻¹ in test [2], 20.7 s⁻¹ in test [4], 90.6 s⁻¹ in test [5] and 19.8 s⁻¹ in [7]. The Vmax in test [2] turned out to be 0.85 nM/s; in test [4] it was 0.21 nM/s; in [5] it was 0.92 nM/s; in [7], 0.24 nM/s. Further, the “Km values of all mutants” value in test [9] was “similar”.
